This assay concerns the target Prostacyclin synthase (Sus scrofa). As to the kind of experiment: Inhibition of porcine aorta prostacyclin PGI-2 synthetase.

`O=C(O)c1ccc2sc(Cn3ccnc3)cc2c1` [2-Imidazol-1-ylmethyl-benzo[b]thiophene-5-carboxylic acid] returned an IC50 of more than 100 µM.
With `O=C(O)c1ccc2oc(Cn3ccnc3)c(Cl)c2c1` [3-Chloro-2-imidazol-1-ylmethyl-benzofuran-5-carboxylic acid] the figure was more than 100 µM; with `Cc1c(Cn2ccnc2)sc2cc(C(=O)O)ccc12` [2-Imidazol-1-ylmethyl-3-methyl-benzo[b]thiophene-6-carboxylic acid], more than 100 µM.
Regarding `Cc1c(Cn2ccnc2)oc2ccc(C(=O)O)cc12` [2-Imidazol-1-ylmethyl-3-methyl-benzofuran-5-carboxylic acid], the 50% inhibitory concentration (IC50) is more than 100 µM.
The result for `O=C(O)c1ccc2c(Cl)c(Cn3ccnc3)sc2c1` [3-Chloro-2-imidazol-1-ylmethyl-benzo[b]thiophene-6-carboxylic acid] reads more than 100 µM; that for `Cc1c(Cn2ccnc2)sc2ccc(C(=O)O)cc12` [2-Imidazol-1-ylmethyl-3-methyl-benzo[b]thiophene-5-carboxylic acid], more than 100 µM.

These data come from BindingDB's records for doi:10.1021/jm00159a013 (1986).
